Results on one compound are retold here after ChEMBL document CHEMBL1147166, “Structure-activity relationships of methoctramine-related polyamines as muscarinic antagonist: effect of replacing the inner polymethylene chain with cyclic moieties” (Bioorg Med Chem, 2007).

Test [1] concerns the target T1, Muscarinic acetylcholine receptor M1 (Homo sapiens, UniProt P11229).
T1 sequence (P11229 whole entry): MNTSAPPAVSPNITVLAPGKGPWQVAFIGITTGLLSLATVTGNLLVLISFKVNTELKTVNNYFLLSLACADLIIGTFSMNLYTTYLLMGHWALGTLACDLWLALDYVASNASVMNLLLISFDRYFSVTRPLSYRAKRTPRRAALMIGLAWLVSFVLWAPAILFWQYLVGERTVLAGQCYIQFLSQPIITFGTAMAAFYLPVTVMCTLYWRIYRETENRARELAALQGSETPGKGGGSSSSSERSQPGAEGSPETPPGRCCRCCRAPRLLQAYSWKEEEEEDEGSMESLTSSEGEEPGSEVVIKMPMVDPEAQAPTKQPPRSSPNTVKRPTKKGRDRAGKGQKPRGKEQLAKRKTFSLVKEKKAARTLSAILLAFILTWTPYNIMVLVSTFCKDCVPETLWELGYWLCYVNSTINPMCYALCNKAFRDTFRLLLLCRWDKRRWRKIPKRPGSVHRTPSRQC
Briefly: Displacement of [3H] N-methyl-scopolamine chloride from human muscarinic receptor M1 expressed in CHO cells. The test is classed as cell-based.

Test [2] deals with Mus musculus. Briefly: Antinociceptive activity in mouse assessed as licking latency at 0.03 ug, icv after 30 mins by hot plate method. It counts as functional. Background: Hot-plate and tail-flick tests time the reaction to a heat stimulus.
Test [3] concerns Mus musculus. Briefly: Antinociceptive activity in mouse assessed as licking latency at 0.3 ug, icv after 15 mins by hot plate method. The test is classed as functional.
For test [4], the system named is Mus musculus. Briefly: Antinociceptive activity in mouse assessed as licking latency at 0.1 ug, icv after 45 mins by hot plate method. It counts as functional.
For test [5], the system named is Mus musculus. Briefly: Antinociceptive activity in mouse assessed as licking latency at 1.0 ug, icv after 45 mins by hot plate method. The test is classed as functional.
The subject of test [6] is Mus musculus. Briefly: Antinociceptive activity in mouse assessed as licking latency at 0.1 ug, icv after 60 mins by hot plate method. The test is classed as functional.
The target in test [7] is Cholinesterase (Homo sapiens, UniProt P06276). Briefly: Inhibition of human serum recombinant BChE after 20 mins.
The subject of test [8] is Mus musculus. Briefly: Antinociceptive activity in mouse assessed as licking latency at 0.03 ug, icv after 15 mins by hot plate method. The test is classed as functional.
In test [9] the test system is Mus musculus. Briefly: Antinociceptive activity in mouse assessed as licking latency at 1.0 ug, icv after 30 mins by hot plate method. It counts as functional.

Cholinesterase, sequence (P06276 whole entry): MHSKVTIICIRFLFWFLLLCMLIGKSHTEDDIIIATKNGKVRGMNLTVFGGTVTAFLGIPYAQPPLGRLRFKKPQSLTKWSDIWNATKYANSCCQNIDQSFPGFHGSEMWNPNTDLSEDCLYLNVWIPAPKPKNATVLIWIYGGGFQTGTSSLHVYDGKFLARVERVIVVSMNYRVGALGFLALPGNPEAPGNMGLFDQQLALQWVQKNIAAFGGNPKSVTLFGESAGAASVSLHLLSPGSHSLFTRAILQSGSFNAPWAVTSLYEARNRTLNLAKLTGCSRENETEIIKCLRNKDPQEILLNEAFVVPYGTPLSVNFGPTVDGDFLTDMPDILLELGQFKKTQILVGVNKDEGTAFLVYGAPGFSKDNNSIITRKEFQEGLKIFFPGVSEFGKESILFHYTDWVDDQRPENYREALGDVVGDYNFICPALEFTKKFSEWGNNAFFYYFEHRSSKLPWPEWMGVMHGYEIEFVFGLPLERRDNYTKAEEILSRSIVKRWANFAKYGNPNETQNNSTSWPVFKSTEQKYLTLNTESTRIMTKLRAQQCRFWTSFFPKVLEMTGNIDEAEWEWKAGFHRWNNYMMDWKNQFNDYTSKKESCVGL

As a reminder, the Ki is a dissociation constant, usually derived from enzyme kinetics or from competition with a known ligand. The low end stands for tighter binding, the high end for weaker binding. Broadly, the IC50 is the concentration that gives 50% inhibition. `COc1ccccc1CNCCCCCCN1CCC(CCC2CCN(CCCCCCNCc3ccccc3OC)CC2)CC1`: in test [1], the affinity corresponds to a Ki of 0.02 µM. The Time in test [2] was found to be 19.4 s; in [3] it was 23.8 s; in test [4], 22.1 s; in test [5], 18.5 s; in test [6], 18.6 s; in test [8], 18.6 s. The Time in test [9] came out at 21.3 s. The IC50 in [7] was 10.5 µM.
